System: Daphnia magna
Assay: 48 h LC50 (-log10 mol/L); higher = more toxic

Compared with `C[C@]12C/C(=C/O)C(=O)C[C@@H]1CC[C@@H]1[C@@H]2CC[C@@]2(C)[C@H]1CC[C@]2(C)O`, `CC(C)(C)NC(=O)[C@H]1CC[C@H]2[C@@H]3CC[C@H]4NC(=O)C=C[C@]4(C)[C@H]3CC[C@]12C` is lower in “48 h LC50 (-log10 mol/L)” value: 4.54 for the first, 4.25 for the second.

Compared with `CNC(=S)N(C)C`, `COc1ccc(NC(=O)N(C)C)cc1Cl` is higher in “48 h LC50 (-log10 mol/L)” value: 2.19 for the first, 3.15 for the second.

First: Nc1ccn([C@H]2CC[C@@H](CO)O2)c(=O)n1
Second: Cc1cn([C@H]2C=C[C@@H](CO)O2)c(=O)[nH]c1=O
The “48 h LC50 (-log10 mol/L)” value of the first is lower: 2.07 for the first, 2.36 for the second.

First: Clc1ccc(Cl)c(-c2cc(Cl)c(Cl)cc2Cl)c1
Second: Clc1cc(Cl)c(-c2cc(Cl)c(Cl)cc2Cl)cc1Cl
The “48 h LC50 (-log10 mol/L)” value of the first is lower: 7.51 for the first, 8.44 for the second.

Compared with `CCCCNC(=O)OCC#CI`, `CCCOC(=O)NCCCN(C)C` is lower in “48 h LC50 (-log10 mol/L)” value: 6.85 for the first, 3.25 for the second.

Going from `CC[C@H]1OC(=O)[C@H](C)[C@@H](O[C@H]2C[C@@](C)(OC)[C@@H](O)[C@H](C)O2)[C@H](C)[C@@H](O[C@@H]2O[C@H](C)C[C@H](N(C)C)[C@H]2O)[C@](C)(OC)C[C@@H](C)C(=O)[C@H](C)[C@@H](O)[C@]1(C)O` to `C/C=C(\C)C(=O)O[C@H]1C[C@@H](OC(C)=O)[C@@]2(C(=O)OC)CO[C@H]3[C@@H](O)[C@@](C)([C@]45O[C@@]4(C)[C@H]4C[C@@H]5O[C@@H]5OC=C[C@@]54O)[C@H]4[C@]1(CO[C@]4(O)C(=O)OC)[C@@H]32`, the “48 h LC50 (-log10 mol/L)” value rises from 4.6 to 6.06.

Going from `COC1=CC(=O)C[C@@H](C)[C@]12Oc1c(Cl)c(OC)cc(OC)c1C2=O` to `COc1c(O)cc(Cl)c(Cl)c1Cl`, the “48 h LC50 (-log10 mol/L)” value rises from 2.51 to 5.53.

Going from `CC1(C)[C@@H]2CC[C@@]1(C)[C@H](OC(=O)CSC#N)C2` to `CC1=CCC2CC1C2(C)C` (stereo not given), the “48 h LC50 (-log10 mol/L)” value falls from 6.47 to 3.52.

Compared with `Brc1ccc(Oc2cc(Br)c(Br)cc2Br)c(Br)c1`, `O=[N+]([O-])c1ccc(Oc2c(Cl)cc(Cl)cc2Cl)cc1` is lower in “48 h LC50 (-log10 mol/L)” value: 7.02 for the first, 5.88 for the second.

First: Nc1cc(Cl)c(Cl)c(Cl)c1Cl
Second: Nc1cc(Cl)c(Cl)cc1Cl
The “48 h LC50 (-log10 mol/L)” value of the first is higher: 5.56 for the first, 4.76 for the second.

First: O=C1CNC(=S)N1
Second: Nc1nc(=S)c2[nH]cnc2[nH]1
The “48 h LC50 (-log10 mol/L)” value of the first is lower: 3.77 for the first, 4.01 for the second.

First: CN=C(NC#N)NCCSCc1nc[nH]c1C
Second: CCCSc1ccc2nc(NC(=O)OC)[nH]c2c1
The “48 h LC50 (-log10 mol/L)” value of the first is lower: 2.53 for the first, 7.04 for the second.

First: CC(C)(C)C(=O)Cl
Second: COP(=O)(NC(C)=O)SC (stereo not given)
The “48 h LC50 (-log10 mol/L)” value of the first is lower: 2.58 for the first, 4.11 for the second.

First: N#CSCSC#N
Second: N#Cc1ncccn1
The “48 h LC50 (-log10 mol/L)” value of the first is higher: 6.25 for the first, 3.34 for the second.

Compared with `COCC(C)O` (stereo not given), `CC(C)N(C(=O)SCC(Cl)=C(Cl)Cl)C(C)C` is higher in “48 h LC50 (-log10 mol/L)” value: 0.59 for the first, 6.46 for the second.

Compared with `c1ccc2cc3c(ccc4ccccc43)cc2c1`, `c1ccc2c(c1)ccc1ccccc12` is lower in “48 h LC50 (-log10 mol/L)” value: 6.22 for the first, 5.41 for the second.

Compared with `Cc1cc(Cl)cc(Cl)c1O`, `Oc1ccc(Cl)cc1Cl` is lower in “48 h LC50 (-log10 mol/L)” value: 5.63 for the first, 4.8 for the second.

First: COC(=O)c1ccccc1C(=O)OC
Second: CCC(C)c1ccccc1OC(=O)NC (stereo not given)
The “48 h LC50 (-log10 mol/L)” value of the first is lower: 3.77 for the first, 6.32 for the second.

Going from `CC(C)NCC(O)COc1cccc2[nH]c3ccccc3c12` (stereo not given) to `CC(=O)Oc1c(C)cc(OCC(O)CNC(C)C)c(C)c1C` (stereo not given), the “48 h LC50 (-log10 mol/L)” value falls from 4.3 to 3.92.

Compared with `Cc1ccc2sccc2c1`, `Cc1csc2ccccc12` is higher in “48 h LC50 (-log10 mol/L)” value: 4.03 for the first, 4.76 for the second.

`FC(F)C(F)(F)OCC(Cn1cncn1)c1ccc(Cl)cc1Cl` (stereo not given) and `CCCC1COC(Cn2cncn2)(c2ccc(Cl)cc2Cl)O1` (stereo not given) are within 0.2 log units of each other in “48 h LC50 (-log10 mol/L)” value: 4.71 for the first, 4.72 for the second.

First: CC(C)NCC(O)c1ccc(NS(C)(=O)=O)cc1 (stereo not given)
Second: Cc1ccc(C(C)C)cc1
The “48 h LC50 (-log10 mol/L)” value of the first is lower: 2.96 for the first, 4.32 for the second.

Going from `Cc1cc(C)c(C)cc1C` to `Cc1cccc([N+](=O)[O-])c1C`, the “48 h LC50 (-log10 mol/L)” value falls from 5.45 to 4.56.

First: Clc1cccc(Cl)c1Cl
Second: Clc1ccc(-c2ccc(Cl)c(Cl)c2Cl)c(Cl)c1Cl
The “48 h LC50 (-log10 mol/L)” value of the first is lower: 4.75 for the first, 8.78 for the second.

`BrC1CCCCC1` and `C1CCNCC1` are within 0.2 log units of each other in “48 h LC50 (-log10 mol/L)” value: 3.89 for the first, 3.93 for the second.

Compared with `CCNc1nc(NCC)nc(SC)n1`, `CCNc1nc(Cl)nc(NC(C)(C)C#N)n1` is higher in “48 h LC50 (-log10 mol/L)” value: 3.63 for the first, 6.45 for the second.

First: CCCCC(CC)COC(=O)CCCCC(=O)OCC(CC)CCCC (stereo not given)
Second: CC(=O)OCC(CCn1cnc2cnc(N)nc21)COC(C)=O
The “48 h LC50 (-log10 mol/L)” value of the first is higher: 5.75 for the first, 2.59 for the second.

Compared with `Fc1ccc([C@@H]2CCNC[C@H]2COc2ccc3c(c2)OCO3)cc1`, `CN(C)C(=O)Nc1ccc(Oc2ccc(Cl)cc2)cc1` is lower in “48 h LC50 (-log10 mol/L)” value: 5.75 for the first, 4.99 for the second.

Compared with `ClCC1CO1` (stereo not given), `O=S1OC[C@@H]2[C@H](CO1)[C@]1(Cl)C(Cl)=C(Cl)[C@@]2(Cl)C1(Cl)Cl` (stereo not given in full) is higher in “48 h LC50 (-log10 mol/L)” value: 3.59 for the first, 6.08 for the second.

Compared with `O=S1(=O)OCC2C(CO1)C1(Cl)C(Cl)=C(Cl)C2(Cl)C1(Cl)Cl` (stereo not given), `CCCC1O[C@@H]2C[C@H]3[C@@H]4CCC5=CC(=O)C=C[C@]5(C)[C@H]4[C@@H](O)C[C@]3(C)[C@]2(C(=O)CO)O1` (stereo not given in full) is lower in “48 h LC50 (-log10 mol/L)” value: 5.3 for the first, 4.33 for the second.

Going from `C1=CCCCC1` to `CC(Cc1ccc(C(C)(C)C)cc1)CN1CCCCC1` (stereo not given), the “48 h LC50 (-log10 mol/L)” value rises from 3.94 to 5.72.

Going from `CC(C)CCCCCCCCCCNCCCCCCCCCCC(C)C` to `CCOP(=O)(NC(C)C)Oc1ccc(SC)c(C)c1` (stereo not given), the “48 h LC50 (-log10 mol/L)” value rises from 6.54 to 8.11.

Compared with `CCCS`, `CCNC(=S)NCC` is lower in “48 h LC50 (-log10 mol/L)” value: 6.1 for the first, 2.84 for the second.

Going from `CC(C)(C)CC(C)(C)c1ccc(O)cc1` to `Cc1ccc(Cl)cc1`, the “48 h LC50 (-log10 mol/L)” value falls from 6.36 to 4.93.

First: O=CCCCC=O
Second: CC(=O)CC(c1ccccc1)c1c(O)c2ccccc2oc1=O (stereo not given)
The “48 h LC50 (-log10 mol/L)” value of the first is higher: 3.79 for the first, 2.96 for the second.

Compared with `CO/N=C(/C(=O)OC)c1ccccc1CO/N=C(\C)c1cccc(C(F)(F)F)c1`, `CC(OC(=O)c1cc(Oc2ccc(C(F)(F)F)cc2Cl)ccc1[N+](=O)[O-])C(=O)O` (stereo not given) is lower in “48 h LC50 (-log10 mol/L)” value: 5.74 for the first, 4.5 for the second.

Compared with `c1ccc2c(c1)ccc1sc3ccccc3c12`, `c1ccc2c(c1)sc1ccccc12` is lower in “48 h LC50 (-log10 mol/L)” value: 6.03 for the first, 5.6 for the second.

Compared with `NC(=O)N1c2ccccc2C=Cc2ccccc21`, `c1ccc2c(c1)cc1ccc3cccc4ccc2c1c34` is higher in “48 h LC50 (-log10 mol/L)” value: 4.23 for the first, 6 for the second.

Compared with `CCc1nc(N)nc(N)c1-c1ccc(Cl)cc1`, `Clc1ccc(-c2ccc(Cl)c(Cl)c2)cc1Cl` is higher in “48 h LC50 (-log10 mol/L)” value: 4.63 for the first, 8.16 for the second.

First: CNC(=O)Oc1cccc2c1OC(C)(C)O2
Second: CC(C)C(=O)Nc1ccc([N+](=O)[O-])c(C(F)(F)F)c1
The “48 h LC50 (-log10 mol/L)” value of the first is higher: 6.88 for the first, 5.3 for the second.

First: BrC=C(Br)Br
Second: CCOC(=O)c1ocnc1C
The “48 h LC50 (-log10 mol/L)” value of the first is higher: 4.33 for the first, 2.67 for the second.

`CCc1ccccc1N` and `CC(C)(C)NC(=O)[C@@H]1C[C@@H]2CCCC[C@@H]2CN1C[C@@H](O)[C@H](Cc1ccccc1)NC(=O)[C@H](CC(N)=O)NC(=O)c1ccc2ccccc2n1` are within 0.2 log units of each other in “48 h LC50 (-log10 mol/L)” value: 4.18 for the first, 4.27 for the second.

With `Cc1nc(N(C)C)nc(OC(=O)N(C)C)c1C` the “48 h LC50 (-log10 mol/L)” value was 7.04.

Reference: EPA's aquatic toxicity sets
